Results as given in patent publication US6432943B1, “Method for treating sexual dysfunction” (Eli Lilly and Company, priority 1997, dated 2002).

Columns and labels:
[1] = tested on: muscarinic cholinergic receptor; details: results of pharmacological studies
rats = test: in vivo animal observation after overdose; set-up: species or system rat
clinical subjects = test: clinical observation of pupil response; details: pupilary dialation was expected
[2] = detection of radiolabelled compound in saliva; format: in vivo
Procedure: For example, in the treatment of adult humans, dosages of from about 0.25 to 50 mg, preferably from 1 to 30 mg, and most preferably 1 to 20 mg per day may be used. A once a day dosage is normally sufficient, although divided doses may be administered. For treatment of cognitive dysfunction, a dose range of from 1 to 30 mg, preferably 1 to 20 mg per day is suitable.

| Compound | muscarinic cholinergic receptor activity [1] | observation in rats exposed to an overdose (rats) | pupil response in clinical subjects (clinical subjects) | detection in saliva [2] |
| --- | --- | --- | --- | --- |
| Cc1cc2c(s1)Nc1ccccc1N=C2N1CCN(C)CC1 | has muscarinic cholinergic receptor activity | significant salivation | pupilary constriction | – |
| Cc1cc2c(s1)Nc1ccccc1N=C2N1CCN(C)CC1 [2-methyl-4-(4-methyl-1-piperazinyl)-10H-thieno-[2,3-b][1,5]benzodiazepine] | – | – | – | can be detected in the saliva |
